{
  "source": "patent US10751335B2",
  "about": "(priority 2016, dated 2020)",
  "key": {"human MOR": {"molecular_target": "human MOR (Homo sapiens (Human), UniProt P35372)"}, "mice": {"tested_on": "mice", "conditions": "mouse, in vivo"}},
  "data": [
    {"smiles": "COc1ccsc1CNCC[C@@]1(c2ccccn2)CCOC2(CCCC2)C1", "note": "[TRV-130]", "values": [
      {"measurement": "G/βarr2 bias factor", "setting": "human MOR", "result": 3.0}
    ]},
    {"smiles": "CN1CC[C@]23c4c5ccc(O)c4O[C@H]2[C@@H](O)C=C[C@H]3[C@H]1C5", "note": "[morphine]", "values": [
      {"measurement": "constipation following acute administration", "setting": "mice", "result": "induced constipation"}
    ]}
  ]
}
